Laboratory results: US20070027162A1, “Crystalline and amorphous 4-cyano-N-{(2R)-2-[4-(2,3-dihydro-benzo[1,4]dioxin-5-yl)-piperazin -1-yl]-propyl}-N-pyridin-2-yl-benzamide hydrochloride” (Wyeth, priority 2005, published 2007)
Like-named read-outs stand apart in the source and are kept apart here.

What was measured:
Assay type in all cases: physicochemical
[1] = Polymorph screen by reslurry at 23° C. and 50° C.; settings: slurrying in a variety of different solvents at 23° C. and 50° C.
From the text: Thermogravimetric analysis (TGA) and differential scanning calorimetry (DSC) data of products of various re-slurries are compared in Tables B and C below together with TGA/DSC data from the crystal form of the invention prepared according to Example 1. TGA/DSC data was obtained as described in Example 3. While DSC endotherms and TGA weight losses slightly differ between experiments, the variation is expected for HCl loss and decomposition of the sample. Powder X-ray diffraction data (see below Examples) of samples from each of the slurries were consistent with the diffraction pattern of FIG. 1 and Table 1.

[2] = Reslurry experiments, 12 days at RT, XRD while wet; settings: ethanol, IPA, ethyl acetate, acetone, THF, acetonitrile, toluene, iso-propyl acetate, water, days 6 and 12
Method: 4-cyano-N-{(2R)-2-[4-(2,3-dihydro-benzo[1,4]dioxin-5-yl)-piperazin-1-yl]-propyl}-N-pyridin-2-yl-benzamide hydrochloride was reslurried in about 1-2 ml of ethanol, IPA, ethyl acetate, acetone, THF, acetonitrile, toluene, iso-propyl acetate, and water. The suspensions were stirred in 5 ml vials for 12 days at RT. The suspension samples were withdrawn at days 6 and 12, filtered, and analyzed via XRD while wet.

[3] = Solubility determination in a variety of solvents
Method: The solubility of the compound of Formula I in a variety of solvents was measured according to routine methods at 23° C. and 50° C.

For `C[C@H](CN(C(=O)c1ccc(C#N)cc1)c1ccccn1)N1CCN(c2cccc3c2OCCO3)CC1.Cl` [Form A, 4-cyano-N-{(2R)-2-[4-(2,3-dihydro-benzo[1,4]dioxin-5-yl)-piperazin-1-yl]-propyl}-N-pyridin-2-yl-benzamide hydrochloride], the “Stability of crystal form upon slurrying” value [1] was “remained stable” and the “Form transformation on reslurry (XRD)” value [2] was “No transformation was noticed”.
In the case of `C[C@H](CN(C(=O)c1ccc(C#N)cc1)c1ccccn1)N1CCN(c2cccc3c2OCCO3)CC1.Cl` [Formula I, 4-cyano-N-{(2R)-2-[4-(2,3-dihydro-benzo[1,4]dioxin-5-yl)-piperazin-1-yl]-propyl}-N-pyridin-2-yl-benzamide hydrochloride], the solubility ([3]; organic solvent or mixture, solvent 2-Propanol, 23° C., read-out: Solubility at 23° C.) is reported as 2 mg/mL, the solubility ([3]; organic solvent or mixture, solvent 2-Propanol, 50° C., read-out: Solubility at 50° C.) is reported as 6 mg/mL and the solubility ([3]; organic solvent or mixture, solvent Acetone, 23° C., read-out: Solubility at 23° C.) is reported as 6 mg/mL. It also gave a solubility ([3]; organic solvent or mixture, solvent Acetone, 50° C., read-out: Solubility at 50° C.) of 9 mg/mL, a solubility ([3]; organic solvent or mixture, solvent CH3CN, 23° C., read-out: Solubility at 23° C.) of 18 mg/mL and a solubility ([3]; organic solvent or mixture, solvent CH3CN, 50° C., read-out: Solubility at 50° C.) of 37 mg/mL. It also gave a solubility ([3]; organic solvent or mixture, solvent DMSO, 23° C., read-out: Solubility at 23° C.) of 246 mg/mL, a solubility ([3]; organic solvent or mixture, solvent DMSO, 50° C., read-out: Solubility at 50° C.) of 337 mg/mL and a solubility ([3]; organic solvent or mixture, solvent EtOH, 23° C., read-out: Solubility at 23° C.) of 19 mg/mL. The solubility ([3]; organic solvent or mixture, solvent EtOH, 50° C., read-out: Solubility at 50° C.) was 40 mg/mL, the solubility ([3]; organic solvent or mixture, solvent Ethyl acetate, 23° C., read-out: Solubility at 23° C.) was 16 mg/mL and the solubility ([3]; organic solvent or mixture, solvent Ethyl acetate, 50° C., read-out: Solubility at 50° C.) was 24 mg/mL. It also gave a solubility ([3]; organic solvent or mixture, solvent Heptane, 23° C., read-out: Solubility at 23° C.) of 1 mg/mL, a solubility ([3]; organic solvent or mixture, solvent Heptane, 50° C., read-out: Solubility at 50° C.) of 1 mg/mL and a solubility ([3]; organic solvent or mixture, solvent MeOH, 23° C., read-out: Solubility at 23° C.) of 378 mg/mL. For the same compound, the solubility ([3]; organic solvent or mixture, solvent MeOH, 50° C., read-out: Solubility at 50° C.) was 989 mg/mL, the solubility ([3]; organic solvent or mixture, solvent THF, 23° C., read-out: Solubility at 23° C.) was 4 mg/mL and the solubility ([3]; organic solvent or mixture, solvent THF, 50° C., read-out: Solubility at 50° C.) was 5 mg/mL. It also gave a solubility ([3]; organic solvent or mixture, solvent Toluene, 23° C., read-out: Solubility at 23° C.) of 8 mg/mL, a solubility ([3]; organic solvent or mixture, solvent Toluene, 50° C., read-out: Solubility at 50° C.) of 14 mg/mL and a solubility ([3]; organic solvent or mixture, solvent t-Butylmethyl ether (t-BME), 50° C., read-out: Solubility at 50° C.) of 1 mg/mL. The solubility ([3]; solvent Water, 23° C., read-out: Solubility at 23° C.) was 49 mg/mL, the solubility ([3]; solvent Water, 50° C., read-out: Solubility at 50° C.) was greater than 100 mg/mL and the “Solubility in water (qualitative)” value ([3]; water, remark explaining oiling out on cooling) was “very high solubility”.
